Test results reported in US9453008B2, “Antithrombotic and antiatherosclerotic agent and method for producing same (variants)” (PROTON OOO, priority 2011, dated 2016).
Entries after “also recorded” stand apart in the source; their conditions may differ. Marks after values point to notes of the source that are not given here.

How the values were obtained:
[1] = system: spontaneously hypertensive (SHT) rats; test: Blood pressure in narcotized SHT rats, intravenous administration; format: in vivo, rat
Experimental: The experiments were performed on spontaneously hypertensive (SHT) and normotensive (NT) narcotized male rats using intravenous administration of the tested compounds. The ability of the compound to reduce arterial blood pressure (BP) in SHT rats and prevent spasmogenic reactions to noradrenalin (NA) and angiotensin I (AI).
The compound of formula I was used as a solution in 3% aqueous DMSO. Sodium nitroprusside and nitroglycerin were used as reference drugs.
The administration of the compound of formula I in dose range 0.01-0.1-0.5 and 1.0 mg/kg has exerted dose-dependent antihypertensive effect ranging in time from 30-40 s to 60 min and more.

[2] = system: ADP-induced platelet aggregation; test: ADP-induced platelet aggregation of rabbit blood plasma, in vitro; format: cell-based; details: concentrations of 10^−3-10^−7 M; listed as compound of formula I
Experimental: (§1) Antiplatelet activity was assessed by the effect of the compound on platelet aggregation of rabbit blood plasma, induced by ADP (adenosine diphosphate) and arachidonic acid. Platelet aggregation was assessed by the change of optical density of plasma. Studies were performed using both intravenous administration, in comparison with sodium nitroprusside, and oral administration, in comparison with acetylsalicylic acid. Compound I was used in concentrations of 10^−3-10^−7 M (parenteral administration) and in 4-8 and 12 mg/kg doses (oral administration).

[3] = Cumulation after 28 days administration; format: in vivo
Description: (§2) Acute toxicity of the compound in mice in internal administration is 8.9±0.75 g/kg, cumulation after 28 days administration is weak (lethality less than 50%).

[4] = system: human neutrophils; test: FMLP-induced generation of superoxide anion radical by human neutrophils; format: cell-based; details: neutrophils weakened by pathological processes
Description: We have also studied the effect of the compound on formylmethionyl-leucyl-phenylalanine (FMLP)—induced generation of superoxide anion radical (O2^−.) by human neutrophils, weakened by pathological processes (histiocytosis, stage 2 hypertension). Such experimentation was chosen due to the fact, that, in order to perform a complete phagocytosis with complete destruction of pathogenic microorganisms, phagocytes, including neutrophils, generate the so-called reactive oxygen species (ROS), including oxygen radicals and compounds easily converting into such radicals. Superoxide anion radical (O2^−.) hydroxyl radical (OH.) and lipid hydroxyperoxides (ROO*) also belong to AOF. All these compounds have one unpaired electron on outer molecular orbital, giving them high reactivity, which causes their interaction with cell molecules: proteins, RNA, DNA, etc, accompanied by the loss of their biological activity.

[5] = system: non-narcotized SHT rats; test: Blood pressure in non-narcotized SHT rats, intragastric administration (non-invasive BP measurement); format: in vivo, rat
Experimental: In experiments on non-narcotized SHT rats intragastric administration of the compound of formula I has caused dose-dependent reduction of BP, the duration of which was increased correspondingly with dose increase (maximal duration of effect 5 hours after single administration of 50 mg/kg dose, Table 3).

[6] = system: ADP-induced platelet aggregation; test: ADP-induced platelet aggregation following peroral administration in rabbits; format: in vivo, rabbit
Experimental: FIG. 2 is a graph showing the changes in platelet functional activity following peroral administration of the compound I in a model of ADP-induced aggregation in rabbits (% compared to control).
as §1

[7] = system: mice; test: Acute toxicity (LD50); format: in vivo; details: mice, internal administration
Description: as §2

[8] = Acute toxicity (LD50); format: in vivo; details: mouse, in vivo, other: internal administration
Description: as §2

[9] = system: pressor action of mesatonum; test: Pressor effect of mesatonum in normotensive narcotized animals; format: in vivo; details: doses 0.01-1.0 mg/kg; mesatonum 5 μg/kg
Experimental: The effects of the compound of formula I on the pressor effects of noradrenaline (NA, 10-15 μg/kg), mesatonum (M, 5 μg/kg) and angiotensin (AI, 5 μg/kg) were studied on normotensive narcotized […]. Antihypertensive action of the compound of formula I was assessed relative to the pressor effects of the control administration of the aforementioned compounds.

## CN1CC(CO)O/C1=C(C#N)/C=C1/Nc2ccccc2C1=O (stereo not drawn) [Compound I, 2-[2-Cyano-2-[5-(hydroxymethyl)-3-methyl-1,3-oxazolidin-2-ylidene]ethylidene]indolin-3-one]
[1]; 0.01 mg/kg dose intravenous
  Duration of BP reduction: 30 s
  Reduction of BP: 10-12 mmHg
[1]; 0.01 mg/kg intravenously, 10-20 s
  Reduction of BP, mmHg (Δ): −12 ± 5 mmHg
[1]; 0.1 mg/kg intravenously, 10-20 s
  Reduction of BP, mmHg (Δ): −15 ± 5 mmHg
[1]; 0.1 mg/kg intravenously, 5 min
  Reduction of BP, mmHg (Δ): −20 ± 7 mmHg
[1]; 0.5 mg/kg intravenously, 10-20 s
  Reduction of BP, mmHg (Δ): −10 ± 3 mmHg
[1]; 0.5 mg/kg intravenously, 5 min
  Reduction of BP, mmHg (Δ): −20 ± 8 mmHg
[1]; 0.5 mg/kg intravenously, 30 min
  Reduction of BP, mmHg (Δ): −25 ± 8 mmHg
[1]; 0.5 mg/kg intravenously, 60 min
  Reduction of BP, mmHg (Δ): −30 ± 7 mmHg
[1]; 1.0 mg/kg dose intravenous
  Duration of BP reduction: 3600 s
  Reduction of BP (maximal effect): 25-30 mmHg
[1]; 1.0 mg/kg intravenously, 10-20 s
  Reduction of BP, mmHg (Δ): −12 ± 3 mmHg
[1]; 1.0 mg/kg intravenously, 5 min
  Reduction of BP, mmHg (Δ): −25 ± 7 mmHg
[1]; 1.0 mg/kg intravenously, 30 min
  Reduction of BP, mmHg (Δ): −30 ± 7 mmHg
[1]; 1.0 mg/kg intravenously, 60 min
  Reduction of BP, mmHg (Δ): −30 ± 8 mmHg
[1]; 1.0 mg/kg intravenously, 120 min
  Reduction of BP, mmHg (Δ): −30 ± 8 mmHg
[2]
  In vitro antiplatelet activity (inhibition of ADP-induced platelet aggregation): significantly inhibits; also recorded: as good as that of acetylsalicylic acid
[3]
  Lethality: less than 50%
[4]
  Effect on reduced ability of human neutrophils to generate reactive oxygen species: briefly enhances
[5]; 1 mg/kg orally, time column 1 (hours), 1 h after dosing
  Reduction of BP, mmHg: 20* mmHg
[5]; 1 mg/kg orally, time column 2, 2 h after dosing
  Reduction of BP, mmHg: 10 mmHg
[5]; 1 mg/kg orally, time column 3, 0 - absence of effect, 3 h after dosing
  Reduction of BP, mmHg: 0 mmHg
[5]; 1 mg/kg orally, time column 4, 0 - absence of effect, 4 h after dosing
  Reduction of BP, mmHg: 0 mmHg
[5]; 1 mg/kg orally, time column 5, 0 - absence of effect, 5 h after dosing
  Reduction of BP, mmHg: 0 mmHg
[5]; 1 mg/kg orally, time column 6, 0 - absence of effect, 6 h after dosing
  Reduction of BP, mmHg: 0 mmHg
[5]; 5 mg/kg orally, time column 1, 1 h after dosing
  Reduction of BP, mmHg: 17* mmHg
[5]; 5 mg/kg orally, time column 2, 2 h after dosing
  Reduction of BP, mmHg: 20* mmHg
[5]; 5 mg/kg orally, time column 3, 3 h after dosing
  Reduction of BP, mmHg: 32* mmHg
[5]; 5 mg/kg orally, time column 4, 4 h after dosing
  Reduction of BP, mmHg: 30* mmHg
[5]; 5 mg/kg orally, time column 5, 5 h after dosing
  Reduction of BP, mmHg: 15 mmHg
[5]; 5 mg/kg orally, time column 6, 0 - absence of effect, 6 h after dosing
  Reduction of BP, mmHg: 0 mmHg
[5]; 10 mg/kg orally, time column 1, 0 - absence of effect, 1 h after dosing
  Reduction of BP, mmHg: 23* mmHg
[5]; 10 mg/kg orally, time column 2, 0 - absence of effect, 2 h after dosing
  Reduction of BP, mmHg: 30* mmHg
[5]; 10 mg/kg orally, time column 3, 0 - absence of effect, 3 h after dosing
  Reduction of BP, mmHg: 37 mmHg
[5]; 10 mg/kg orally, time column 4, 0 - absence of effect, 4 h after dosing
  Reduction of BP, mmHg: 35 mmHg
[5]; 10 mg/kg orally, time column 5, 0 - absence of effect, 5 h after dosing
  Reduction of BP, mmHg: 17* mmHg
[5]; 10 mg/kg orally, time column 6, 0 - absence of effect, 6 h after dosing
  Reduction of BP, mmHg: 0 mmHg
[5]; 25 mg/kg orally, time column 1, 1 h after dosing
  Reduction of BP, mmHg: 26* mmHg
[5]; 25 mg/kg orally, time column 2, 2 h after dosing
  Reduction of BP, mmHg: 32* mmHg
[5]; 25 mg/kg orally, time column 3, 3 h after dosing
  Reduction of BP, mmHg: 45* mmHg
[5]; 25 mg/kg orally, time column 4, 4 h after dosing
  Reduction of BP, mmHg: 45* mmHg
[5]; 25 mg/kg orally, time column 5, 5 h after dosing
  Reduction of BP, mmHg: 25* mmHg
[5]; 25 mg/kg orally, time column 6, 0 - absence of effect, 6 h after dosing
  Reduction of BP, mmHg: 0 mmHg
[5]; 50 mg/kg orally, time column 1, 1 h after dosing
  Reduction of BP, mmHg: 25* mmHg
[5]; 50 mg/kg orally, time column 2, 2 h after dosing
  Reduction of BP, mmHg: 42* mmHg
[5]; 50 mg/kg orally, time column 3, 3 h after dosing
  Reduction of BP, mmHg: 50* mmHg
[5]; 50 mg/kg orally, time column 4, 4 h after dosing
  Reduction of BP, mmHg: 50* mmHg
[5]; 50 mg/kg orally, time column 5, 5 h after dosing
  Reduction of BP, mmHg: 25* mmHg
[5]; 50 mg/kg orally, time column 6, 0 - absence of effect, 6 h after dosing
  Reduction of BP, mmHg: 0 mmHg
[5]; single intragastric administration of 50 mg/kg dose
  Maximal duration of BP-reducing effect: 5 h
[6]; enteral administration
  Duration of effect on ADP-induced aggregation: about 3 hours
[6]; peroral, rabbits, after 2 hours
  Inhibition of ADP-induced aggregation (maximal potency): 40%
[6]; peroral, rabbits, after the first hour
  Inhibition of ADP-induced aggregation: 30%
[6]; peroral, rabbits, persisting for all 4 hours of observation
  Inhibition of ADP-induced aggregation (as a tendency): 15-25%
[7]
  Acute toxicity: 8.9 ± 0.75 g/kg
[8]
  LD50: 8900 mg/kg
[9]
  Effect on the pressor action of M (mesatonum): does not significantly affect
